Reference: patent US20250002492A1, “COMPOSITIONS OF FOLATE ABSORPTION INHIBITORS AND METHODS THEREOF” (THE TEXAS A&M UNIVERSITY SYSTEM, priority 2023, published 2025)
Where two headings read alike, the source gives them in different places.

How the values were obtained:
C. elegans = settings: 220 μM, treated at the adult stage; cited from earlier work
Swiss mice = settings: 0-10 ppm in the diet in alternating weeks, male and female, 7 to 120 weeks of age; 5 of the 8 conditions tested; one case p=0.04; cited from earlier work
C. elegans strain N2 = assay: Lifespan assay in worms; assay type: in vivo
Text: The ability of pharmacological or other interventions to extend the lifespan of different organisms is often conserved. For the instant example, the disclosed compounds can be tested for their ability to extend the lifespan of the worm model system Caenorhabditis elegans (N2 strain) [see, e.g., PMID: 19488025]. The organisms can be first exposed to the compounds as adults, 2-3 days after the egg stage until their death, on solid media containing the compounds at the desired concentration. The temperature can be kept constant at 20° C. throughout the assays. The bacteria used as food for the worms (Escherichia coli strain OP-50) can be dead (e.g., killed by lethal doses of ultraviolet radiation) to ensure that any effects on lifespan are not indirect, mediated through bacterial metabolism.
The assays were performed at 20° C. using C. elegans strain N2 and a bacterial strain (OP50) commonly used as food for the worms. Briefly, the assays were performed on solid agar nematode growth media (NGM) plates prepared fresh before each experiment. The bacterial lawn was exposed twice to a UV dose of 120 mJ/cm^2 using a UVC-515 Ultraviolet Multilinker (Ultra-Lum, Inc.). Streaking these UV-exposed bacteria to fresh LB agar plates (1% w/v tryptone, 0.5% w/v yeast extract, 1% w/v sodium chloride) produced no visible colonies. Methotrexate, or the ATIC inhibitor, was first dissolved in DMSO and then added to the media used to prepare the plates after autoclaving (the media were kept in a 50° C. water bath until the plates were poured). Mock-treated control plates contained only DMSO. At the start of each experiment, a sufficient number of eggs were collected from plates without any drugs and then placed on plates containing the indicated doses of each compound tested. After hatching and progression to the adult stage, animals were transferred to new plates (marked as the start of the lifespan assay) containing the drug tested and fluorodeoxyuridine (FUDR; dissolved in water), added at 50 μM to block hatching of new animals. The plates were scored at least every other day until all the worms died. If an animal responded to gentle touch, it was scored as alive, otherwise a death was recorded, and the animal was removed from the plate. Worms were transferred to fresh plates as needed (e.g., if there was evidence of microbial contamination, dryness/cracks on the agar surface, consumption of the bacterial lawn, or hatching of new animals that escaped the FUDR block). The reported lifespans were compiled from several independent experiments done over several months (9-10 months for the methotrexate experiments and 4-5 months for the ATIC inhibitor), each scored by multiple individuals (4-5 persons per experiment). No experiments were excluded from the analysis.

[1] = tested on: S. cerevisiae strain BY4742; assay: Cell size measurement in yeast (Z2 Channelyzer); assay type: cell-based; settings: from 47 fL
Experimental: (§1) In the instant example, methotrexate (MTX), or the ATIC inhibitor (ATIC-Inh), was dissolved in dimethylsulfoxide (DMSO) and used at the final concentrations shown in FIGS. 2B-2D. The cell size measurements shown in FIG. 3 were also done in strain BY4742 in YPD.
Briefly, overnight cultures were diluted to about 5×10^5 cells/mL in fresh media, allowed to proliferate for 2-3 h at 30° C., and then methotrexate was added at the indicated final concentrations. 4-5 h later, cell size was measured with a Z2 Channelyzer.

[2] = tested on: S. cerevisiae strain BY4742; assay: Replicative lifespan assay in yeast; assay type: cell-based
Experimental: The assays were performed in the standard S. cerevisiae strain BY4742 (MATα his3Δ1 leu2Δ0 lys2Δ0 ura3Δ0) on solid rich undefined media (YPD; 1% w/v yeast extract, 2% W/v peptone, 2% W/v dextrose, 2% w/v agar).
as §1

yeast cells = assay: Yeast cell proliferation; assay type: cell-based, S. cerevisiae; settings: low doses (0.5-10 μM); not shown
mice = settings: cited from earlier work

## CN(Cc1cnc2nc(N)nc(N)c2n1)c1ccc(C(=O)N[C@@H](CCC(=O)O)C(=O)O)cc1 [methotrexate, 4-amino-N10-methylpteroylglutamic acid]
C. elegans
  lifespan: did not extend their lifespan
Swiss mice
  mean lifespan vs control group: mean lifespan was longer than in the control group
C. elegans strain N2; 1-3 μM, continuous exposure from embryo stage until death, p<2E-14 log-rank
  lifespan extension: ~15%
C. elegans strain N2; higher doses 10-100 μM, not shown
  lifespan: did not extend lifespan
[1]; 50 μM
  cell size: 56 fL
[1]; 100 μM
  cell size: 64 fL
[1]; concentrations up to 10 μM
  cell size: 52 fL
[2]; 0.5-10 μM, p<0.05 log-rank test
  yeast replicative lifespan: increased yeast replicative lifespan
[2]; dose 1 μM
  maximal lifespan extension: ~15%
[2]; higher concentrations (above 10 μM; 50-100 μM)
  yeast replicative longevity: did not extend replicative longevity
Yeast cells
  cell proliferation: did not affect cell proliferation significantly
mice; 5-week-old mice
  LD50: 59 mg/kg
mice; 16-week-old mice
  LD50: 284 mg/kg
